Assays:
[1] = Physiologic parameters (body weight, rectal temperature, mean arterial blood pressure) in rabbit model of spinal cord ischemia; type: in vivo, New Zealand White rabbits
Procedure: (§1) Twenty-six male New Zealand White rabbits weighting 2.2 to 3.0 kg were used in this experiment. Spinal cord ischemia was induced by occluding the abdominal aorta with […] for 20 minutes just distal to the renal arteries. Surgical preparation was conducted according to the method described in the literature, Terada H. et. al., J. Thorac. Cardiovasc. Surg. 2001; 122: 979-85. A 24-gauge venous catheter was placed in the marginal ear vein for drug administration. The rabbits were anesthetized with intravenous sodium pentobarbital (25 mg/kg) and allowed to breathe spontaneously. Lidocaine (0.5%) was administered at the site of the skin incision as local anesthesia. The left common carotid artery was cannulated with a 24-gauge catheter for monitoring the arterial pressure. Core body temperature was continuously monitored with a rectal probe and was maintained at 38.5° C. with the aid of heating lamp. The infrarenal abdominal aorta was exposed through a transperitoneal approach. After systemic heparinization (200 U/kg), spinal cord ischemia was induced by occluding the abdominal aorta with […] for 20 minutes just distal to the renal arteries and just above the aortic bifurcation. Then, the […] released, and the flank was closed. […] The rabbits were assigned randomly to 1 of the 4 groups and subjected to the treatment of (1) above in the following manner. The sham group (n=3) underwent the same operation without aortic occlusion. The control group (n=7) received saline (1 ml) intravenously 15 minutes before aortic occlusion. NS-7 (1 mg/kg) was administered intravenously as a bolus dose 15 minutes before aortic occlusion in group A (n=8) or just after releasing the […] onset of reperfusion) in group B (n=8). All the animals survived the entire observation period. Body weight, rectal temperature, and mean arterial blood pressure values at baseline, 10 minutes after ischemia, and 10 minutes after reperfusion are shown in Table 1. There were no significant differences in the weights of the animals.

[2] = test system: Rabbit Model of Spinal Cord Ischemia; assay: Histopathologic examination (HE staining, semiquantitative histologic score); type: in vivo, New Zealand White rabbits
Procedure: as §1, with “All animals were killed by means of a lethal injection of pentobarbital (200 mg/kg) 48 hours after operation. Spinal cords were quickly harvested and sectioned from” for “All”, “low thoracic level to” for “animals survived”, “low lumbar level into the following 4 segments: low thoracic (LT=T10-T12), upper lumbar (UL=L1-L2), mid lumbar (ML=L3-L4),” for “entire observation period. Body weight, rectal temperature,”, “low lumbar (LL=L5-L6). […]” for “mean arterial blood pressure values at baseline, 10 minutes after ischemia, and 10 minutes after reperfusion are shown in Table 1. There were no significant differences in the weights of the animals.”

[3] = Group A (NS-7 1 mg/kg i.v. 15 min before aortic occlusion), Baseline
[4] = Group A (NS-7 1 mg/kg i.v. 15 min before aortic occlusion), Ischemia, 10 min
[5] = Group A (NS-7 1 mg/kg i.v. 15 min before aortic occlusion), Reperfusion, 10 min
[6] = Group B (NS-7 1 mg/kg i.v. at onset of reperfusion), Baseline
[7] = Group B (NS-7 1 mg/kg i.v. at onset of reperfusion), Ischemia, 10 min
[8] = Group B (NS-7 1 mg/kg i.v. at onset of reperfusion), Reperfusion, 10 min

Cc1cc(-c2ccc(F)cc2)cc(OCCCCCN2CCCCC2)n1.Cl [NS-7, 4-(4-Fluorophenyl)-2-methyl-6-(5-piperidinopentyloxy)pyridine hydrochloride]
MAP (mean arterial blood pressure) [1, 3]: 83 ± 5 mmHg
Rectal Temp. [1, 3]: 38.4 ± 0.7 °C
MAP (mean arterial blood pressure) [1, 4]: 85 ± 5 mmHg
Rectal Temp. [1, 4]: 38.1 ± 0.4 °C
MAP (mean arterial blood pressure) [1, 5]: 78 ± 10 mmHg
Rectal Temp. [1, 5]: 38.1 ± 0.2 °C
MAP (mean arterial blood pressure) [1, 6]: 91 ± 6 mmHg
Rectal Temp. [1, 6]: 38.5 ± 0.4 °C
MAP (mean arterial blood pressure) [1, 7]: 86 ± 7 mmHg
Rectal Temp. [1, 7]: 38.4 ± 0.5 °C
MAP (mean arterial blood pressure) [1, 8]: 81 ± 8 mmHg
Rectal Temp. [1, 8]: 38.6 ± 0.5 °C
Cellular damage in HE-stained sections (FIG. 3) ([2]; NS-7 before ischemia or at the onset of reperfusion, mid lumbar): minimal evidence of cellular damage
Histologic changes in the spinal cords ([2]; group A or group B, mid lumbar and low lumbar levels): only slight changes
Average histologic scores ([2]; group A or group B, mid lumbar and low lumbar levels, vs control group (FIG. 4)): significantly lower than those of the control group
